Reference: patent publication US20080221253A1, “Lipophilic Properties of 2-Acrylamido-2-Methylpropanesulfonic Acid” (THE LUBRIZOL CORPORATION, priority 2004, published 2008)

Tests used:
[1] = Solubility of monomers, mixing 10% of the monomer with a variety of solvents; format: physicochemical; conditions: 10% by weight in solvent
[2] = octanol/water partition, P=Coctanol/Cwater; cited from earlier work

Structure (SMILES): C=CC(=O)NC(C)(C)CS(=O)(=O)O [Example 7, 2-acrylamido-2-methylpropanesulfonic acid]
- Solubility in Butyl Acetate [1]: insoluble
- Solubility in Ethanol [1]: insoluble
- Solubility in Ethyl Acetate [1]: insoluble
- Solubility in Isopropanol [1]: not fully soluble
- Solubility in Styrene [1]: insoluble
- Solubility in Toluene [1]: insoluble
- Solubility in Water [1]: clear

Structure (SMILES): C=CC(=O)NC(C)(C)CS(=O)(=O)O.CCCCCCCCCCCCN(C)C [Example 8, 2-acrylamido-2-methylpropanesulfonic acid/N,N-dimethyl-n-dodecylamine salt]
- Solubility in Butyl Acetate [1]: clear
- Solubility in Ethanol [1]: clear
- Solubility in Ethyl Acetate [1]: clear
- Solubility in Isopropanol [1]: clear
- Solubility in Styrene [1]: clear
- Solubility in Toluene [1]: clear
- Solubility in Water [1]: clear

Structure (SMILES): C=CC(=O)NC(C)(C)CS(=O)(=O)O.CCCCC(CC)CN [Example 9, 2-acrylamido-2-methylpropanesulfonic acid/2-ethylhexylamine salt]
- Solubility in Butyl Acetate [1]: trace oil
- Solubility in Ethanol [1]: clear
- Solubility in Ethyl Acetate [1]: clear
- Solubility in Isopropanol [1]: clear
- Solubility in Water [1]: clear

Structure (SMILES): C=CC(=O)O [acrylic acid]
- log P [2]: about 0.4

Structure (SMILES): CCc1ccccc1 [ethylbenzene]
- log P [2]: about 3.1
